28 compounds from patent US20220296595A1, “CDK INHIBITORS” (QILU REGOR THERAPEUTICS INC., priority 2019, published 2022) can be followed below.

A word on the IC50: it is the point on the concentration scale where inhibition reaches its midpoint.

SMILES strings stand for the structures.

Assay [1] addresses T1, CDK4/CyclinD1 (Homo sapiens, UniProt P11802).
T1 construct: purchased Thermofisher PR8064A
Description: Assay for inhibition of CDK4/CyclinD1 (Caliper microfluidic kinase assay). It is filed as biochemical. To be noted: CDK4/CyclinD1, 200 μM ATP. In short, it runs like this: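 IC50 was obtained by 4-parameter sigmoidal fitting after 1 nM CDK4/CyclinD1, 200 μM ATP and 1 μM FL-34 substrate reacted for 3 h at room temperature (pH 7.5 HEPES, 10 mM MgCl2). After EDTA quench, substrate and product were separated and detected on a Caliper microfluidic chip.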

Assay [2] has as its target T2, CDK6/CyclinD3 (Homo sapiens, UniProt Q00534).
T2 construct: purchased Carna 04-107
Description: Assay for inhibition of CDK6/CyclinD3 (Caliper microfluidic kinase assay). It is filed as biochemical. The note with it: CDK6/CyclinD3, 300 μM ATP. In short, it runs like this: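 IC50s came from four-parameter dose-response fits of microfluidic substrate/product separation data. Reactions held 2 nM CDK6/CyclinD3, 300 μM ATP and 1 μM 5-FAM peptide FL-34 in pH 7.5 HEPES/MgCl2 buffer, ran 3 hours at room temperature, then were quenched with EDTA.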

The target in assay [3] is T3, CDK2/CyclinE1 (Homo sapiens, UniProt P24941).
T3 construct: purchased SignalChem C29-18G
The assay is described as follows: Assay for inhibition of CDK2/CyclinE1 (Caliper microfluidic kinase assay). It is filed as biochemical. The note with it: CDK2/CyclinE1, 100 μM ATP; read-out: CDK2 IC50. The method, boiled down: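 IC50 came from 4-parameter fits of substrate-to-product conversion, separated on a Caliper chip after an EDTA stop. Reactions ran 3 hours at room temperature with 100 μM ATP, 5 μM fluorescent FL-18 peptide and 5 nM enzyme in 100 mM HEPES pH 7.5, 10 mM MgCl2.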

Assay [4] relates to T47D breast cancer cells. Description: Anti-proliferation assay in T47D cell (Cyquant, day 6). To be noted: Homo sapiens, T47D, anti-proliferation, T47D cells; read-out: T47D IC50. It is filed as cell-based, human. In short, it runs like this: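 A ten-point, 3-fold compound series (10 μM down to 0.51 nM) was applied to overnight-settled cells in 10% FBS RPMI 1640, and DNA content was read by CyQuant fluorescence 6 days later. An untreated plate read before dosing served as baseline for subtraction before IC50 fitting.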

For assay [5], the system named is phosphorylation of Retinoblastoma Protein (pRb Ser807/811 or Ser780) in T47D cells. Description: Inhibition of phosphorylation of retinoblastoma protein (pRb) in T47D cell (ELISA). Format: cell-based, human. The note with it: Homo sapiens, T47D, read-out: Phospho T47D Ser807 IC50, pRb Ser807 phosphorylation, T47D cells. The method, boiled down:
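T47D cells in RPMI 1640 + 10% FBS, adhered overnight, then treated 24 h with 3-fold compound titrations (top concentration […]). Lysates assayed by sandwich ELISA for pRb Ser807/811 or Ser780 with HRP/TMB detection. IC50 from 4-parameter sigmoidal fit.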

T1 sequence (P11802 whole entry): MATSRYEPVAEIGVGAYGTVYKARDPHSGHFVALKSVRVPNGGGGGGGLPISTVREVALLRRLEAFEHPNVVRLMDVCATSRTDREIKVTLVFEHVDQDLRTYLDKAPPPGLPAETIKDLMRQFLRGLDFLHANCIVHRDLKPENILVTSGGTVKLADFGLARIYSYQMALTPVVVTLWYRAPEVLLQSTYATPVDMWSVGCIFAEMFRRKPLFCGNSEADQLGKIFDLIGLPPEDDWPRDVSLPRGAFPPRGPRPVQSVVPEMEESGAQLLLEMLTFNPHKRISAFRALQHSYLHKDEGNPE
T1 sequence (P24385 whole entry partner): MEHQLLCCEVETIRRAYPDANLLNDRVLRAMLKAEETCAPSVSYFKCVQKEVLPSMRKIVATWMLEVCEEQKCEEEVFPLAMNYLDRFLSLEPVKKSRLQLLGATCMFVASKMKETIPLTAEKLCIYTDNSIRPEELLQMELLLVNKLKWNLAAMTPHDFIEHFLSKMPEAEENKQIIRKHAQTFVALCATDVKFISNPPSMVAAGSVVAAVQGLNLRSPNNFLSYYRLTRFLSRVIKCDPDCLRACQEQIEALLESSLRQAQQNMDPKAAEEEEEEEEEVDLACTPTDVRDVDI
T2 sequence (Q00534 whole entry): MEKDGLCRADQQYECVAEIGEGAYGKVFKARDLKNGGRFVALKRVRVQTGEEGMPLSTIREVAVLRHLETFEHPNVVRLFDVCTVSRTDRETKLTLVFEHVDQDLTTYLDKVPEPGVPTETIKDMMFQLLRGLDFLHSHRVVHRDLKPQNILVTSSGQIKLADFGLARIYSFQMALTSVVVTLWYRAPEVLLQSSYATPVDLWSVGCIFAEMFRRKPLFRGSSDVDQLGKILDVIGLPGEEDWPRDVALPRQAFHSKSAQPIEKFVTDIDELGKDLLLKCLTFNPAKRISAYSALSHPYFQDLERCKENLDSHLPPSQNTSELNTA
T2 sequence (P30281 whole entry partner): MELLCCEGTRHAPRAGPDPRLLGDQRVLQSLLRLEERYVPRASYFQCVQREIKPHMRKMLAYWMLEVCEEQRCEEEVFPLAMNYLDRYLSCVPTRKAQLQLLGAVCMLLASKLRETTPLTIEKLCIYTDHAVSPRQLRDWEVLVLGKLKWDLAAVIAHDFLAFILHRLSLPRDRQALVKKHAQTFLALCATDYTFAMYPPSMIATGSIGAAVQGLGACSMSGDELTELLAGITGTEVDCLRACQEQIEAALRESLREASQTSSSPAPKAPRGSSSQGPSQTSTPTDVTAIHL

For `CC(C)c1cnn2ccc(-c3ccnc(Nc4ccc(N5CCCC(N(C)C)C5=O)cn4)n3)cc12` (centres unmarked) [compound 157], the IC50 is less than 10 nM in assay [1]; 10 to 100 nM in assay [2]; 100 to 1000 nM in assay [3]; less than 100 nM in assay [4]; less than 100 nM in assay [5].

As to `CC(C)c1cnn2ccc(-c3nc(Nc4ccc(N5CCC(N6CC(F)(F)C6)CC5=O)cn4)ncc3F)cc12` (centres unmarked) [compound 158], the IC50 in assay [1] is less than 10 nM; in assay [2] it was 10 to 100 nM; in assay [3], 10 to 100 nM; in assay [4], less than 100 nM; in assay [5], less than 100 nM.

Turning to `CC(C)c1cnn2ccc(-c3nc(Nc4ccc(N5CCC(NC6CC(F)(F)C6)CC5=O)cn4)ncc3F)cc12` (centres unmarked) [compound 159], the IC50 in assay [1] was less than 10 nM; in assay [2] it was 10 to 100 nM; in assay [3], 10 to 100 nM; in assay [4] it was less than 100 nM; in assay [5], less than 100 nM.

Regarding `CC(C)c1cnn2ccc(-c3ccnc(Nc4ccc(N5CCC(N6CC(F)C6)CC5=O)cn4)n3)cc12` (centres unmarked) [compound 162], the IC50 in assay [1] is less than 10 nM; in assay [2], 10 to 100 nM; in assay [3], 10 to 100 nM; in assay [4], less than 100 nM; in assay [5], less than 100 nM.

As to `CC(C)c1cnn2ccc(-c3ccnc(Nc4ccc(N5CCNC5=O)cn4)n3)cc12` [compound 163], the IC50 in assay [1] is less than 10 nM; in assay [2], 10 to 100 nM; in assay [3], 10 to 100 nM; in assay [4] it was less than 100 nM; in assay [5], less than 100 nM.

Regarding `CC(C)c1cnn2ccc(-c3ccnc(Nc4ccc(N5CCOCC5=O)cc4F)n3)cc12` [compound 164], the IC50 in assay [1] is less than 10 nM; in assay [2], 10 to 100 nM; in assay [3] it was less than 10 nM; in assay [4], less than 100 nM; in assay [5] it was less than 100 nM.

On to `CC(C)c1cnn2ccc(-c3ccnc(Nc4ccc(S(N)(=O)=O)cc4)n3)cc12` [compound 165], for which the IC50 in assay [1] is 10 to 100 nM; in assay [2], 100 to 1000 nM; in assay [3], less than 10 nM; in assay [4], less than 100 nM; in assay [5], 100 to 500 nM.

In the case of `CNC(=O)c1ccc(Nc2nccc(-c3ccn4ncc(C(C)C)c4c3)n2)cc1` [compound 166], the IC50 was less than 10 nM in assay [1]; 10 to 100 nM in assay [2]; less than 10 nM in assay [3]; less than 100 nM in assay [4]; less than 100 nM in assay [5].

For the compound `CC(C)c1cnn2ccc(-c3ccnc(Nc4ccc(C(=O)N(C)C)cc4)n3)cc12` [compound 167], the IC50 is less than 10 nM in assay [1]; 10 to 100 nM in assay [2]; less than 10 nM in assay [3]; less than 100 nM in assay [4]; less than 100 nM in assay [5].

Regarding `CC(C)c1cnn2ccc(-c3ccnc(Nc4ccc(C(N)=O)cc4)n3)cc12` [compound 168], the IC50 in assay [1] was less than 10 nM; in assay [2], 10 to 100 nM; in assay [3], less than 10 nM; in assay [4] it was less than 100 nM; in assay [5] it was less than 100 nM.

As for `CC(C)c1cnn2ccc(-c3ccnc(Nc4ccc(N5CCC(N6CCC6)CC5=O)cn4)n3)cc12` (centres unmarked) [compound 171], the concentration for half-maximal inhibition (IC50) in assay [1] is less than 10 nM; in assay [2] it was 10 to 100 nM; in assay [3], less than 10 nM; in assay [4] it was less than 100 nM; in assay [5], less than 100 nM.

For `CC(C)c1cnn2ccc(-c3ccnc(Nc4ccc(N5CCC(N(C)C)CC5=O)cc4)n3)cc12` (centres unmarked) [compound 172], the IC50 in assay [1] was less than 10 nM; in assay [2], less than 10 nM; in assay [3] it was less than 10 nM; in assay [4], less than 100 nM; in assay [5], less than 100 nM.

Regarding `CC(C)c1cnn2ccc(-c3ccnc(Nc4ccc(N5CCCNC5=O)cc4)n3)cc12` [compound 173], the IC50 in assay [1] was less than 10 nM; in assay [2] it was less than 10 nM; in assay [3] it was 10 to 100 nM; in assay [4] it was less than 100 nM; in assay [5] it was less than 100 nM.

Consider `CCN(CC)C1CCN(c2ccc(Nc3nccc(-c4ccn5ncc(C(C)C)c5c4)n3)nc2)C(=O)C1` (centres unmarked) [compound 176], for which the IC50 was less than 10 nM in assay [1]; 10 to 100 nM in assay [2]; 10 to 100 nM in assay [3]; less than 100 nM in assay [4]; less than 100 nM in assay [5].

`CC(C)c1cnn2ccc(-c3ccnc(Nc4ccc(N5CCC=CC5=O)cn4)n3)cc12` [compound 184]: the IC50 was less than 10 nM in assay [1]; 10 to 100 nM in assay [2]; 10 to 100 nM in assay [3]; less than 100 nM in assay [4]; less than 100 nM in assay [5].

As for `CC(C)c1cnn2ccc(-c3ccnc(Nc4ccc(C(=O)N5CCC(NC6CC6)C5)cc4)n3)cc12` (centres unmarked) [compound 191], the IC50 in assay [1] was less than 10 nM; in assay [2] it was 10 to 100 nM; in assay [3] it was less than 10 nM; in assay [4] it was less than 100 nM; in assay [5] it was less than 100 nM.

In the case of `Cc1nn2ccc(-c3ccnc(Nc4ccc(N5CCNCC5=O)cn4)n3)cc2c1C(C)C` [compound 192], the IC50 is less than 10 nM in assay [1]; 10 to 100 nM in assay [2]; 10 to 100 nM in assay [3]; less than 100 nM in assay [4]; less than 100 nM in assay [5].

Take `CC1CC(=O)N(c2ccc(Nc3ncc(F)c(-c4ccn5ncc(C(C)C)c5c4)n3)nc2)CCN1` (centres unmarked) [compound 193]: the IC50 is less than 10 nM in assay [1]; 10 to 100 nM in assay [2]; 10 to 100 nM in assay [3]; less than 100 nM in assay [4]; less than 100 nM in assay [5].

For `CC1CN(c2ccc(Nc3ncc(F)c(-c4ccn5ncc(C(C)C)c5c4)n3)nc2)C(=O)CCN1` (centres unmarked) [compound 194], the IC50 was less than 10 nM in assay [1]; 10 to 100 nM in assay [2]; 10 to 100 nM in assay [3]; 100 to 500 nM in assay [4]; less than 100 nM in assay [5].

Take `O=C1CCNCCN1c1ccc(Nc2ncc(F)c(-c3ccn4ncc(C5CC5)c4c3)n2)nc1` [compound 195]: the IC50 in assay [1] is less than 10 nM; in assay [2] it was 10 to 100 nM; in assay [3], 100 to 1000 nM; in assay [4], less than 100 nM; in assay [5], less than 100 nM.

On to `CC(C)c1cnn2ccc(-c3ccnc(Nc4ccc(N5CCC(C)(N)CC5=O)cn4)n3)cc12` (centres unmarked) [compound 196], for which the IC50 in assay [1] is less than 10 nM; in assay [2], 10 to 100 nM; in assay [3], less than 10 nM; in assay [4], less than 100 nM; in assay [5], less than 100 nM.

For `CC(C)(C)c1cnn2ccc(-c3ccnc(Nc4ccc(N5CCNCCC5=O)cn4)n3)cc12` [compound 197], the IC50 in assay [1] is less than 10 nM; in assay [2], 10 to 100 nM; in assay [3], 10 to 100 nM; in assay [4] it was less than 100 nM; in assay [5] it was less than 100 nM.

Turning to `CC(C)c1cnn2ccc(-c3nc(Nc4ccc(N5C(=O)CC6CC5CN6)cn4)ncc3F)cc12` (centres unmarked) [compound 198], the IC50 in assay [1] is less than 10 nM; in assay [2] it was 10 to 100 nM; in assay [3], 10 to 100 nM; in assay [4], less than 100 nM; in assay [5], less than 100 nM.

As for `CC(C)c1cnn2ccc(-c3nc(Nc4ccc(N5CC6CCC(CC5=O)N6)cn4)ncc3F)cc12` (centres unmarked) [compound 199], the IC50 in assay [1] was less than 10 nM; in assay [2], less than 10 nM; in assay [3] it was 10 to 100 nM; in assay [4], less than 100 nM; in assay [5], less than 100 nM.

As for `CC(C)c1cnn2ccc(-c3ccnc(Nc4ccc(N5CCC(N6CCNCC6)CC5=O)cn4)n3)cc12` (centres unmarked) [compound 200], the IC50 in assay [1] is less than 10 nM; in assay [2], 10 to 100 nM; in assay [3], 10 to 100 nM; in assay [4], less than 100 nM; in assay [5] it was less than 100 nM.

Turning to `CC(C)c1cnn2ccc(-c3ccnc(Nc4ccc(N5CCC(C)(N)CC5=O)cc4)n3)cc12` (centres unmarked) [compound 202], the concentration for half-maximal inhibition (IC50) in assay [1] was less than 10 nM; in assay [2], less than 10 nM; in assay [3] it was less than 10 nM; in assay [4], less than 100 nM; in assay [5], less than 100 nM.

For `CC(C)c1cnn2ccc(-c3ccnc(Nc4ccc(N5CCC(N)CC5=O)cn4)n3)cc12` (centres unmarked) [compound 203], the IC50 is less than 10 nM in assay [1]; 10 to 100 nM in assay [2]; less than 10 nM in assay [3]; less than 100 nM in assay [4]; less than 100 nM in assay [5].

Regarding `CC(C)c1cnn2ccc(-c3ccnc(Nc4ccc(N5CCCC(N)C5=O)cn4)n3)cc12` (centres unmarked) [compound 207], the IC50 in assay [1] was less than 10 nM; in assay [2], less than 10 nM; in assay [3], 10 to 100 nM; in assay [4], less than 100 nM; in assay [5], less than 100 nM.
